In PMC9250534, “Synthesis and direct assay of large macrocycle diversities by combinatorial late-stage modification at picomole scale” (Nature Communications, 2022):
Numbered stars: 1 amine (or outer) side, 2 acyl side, 3 side chain; on linkers, the order of the positions; unused ones are H or OH. Bridge positions count the residues as written; N and C are the ends. Square brackets hold non-standard residues; d marks the D form. Peptide text beside a SMILES is read from it. * marks the point of attachment. ξ: configuration not given here. Pro(cis-4-NH-(E)-Cinnamoyl) = O=C(/C=C/c1ccccc1)N[C@@H]1CN[C@H](C(=O)O)C1; Pro(cis-4-NHBenzoyl(4-Cl)) = O=C(N[C@@H]1CN[C@H](C(=O)O)C1)c1ccc(Cl)cc1; ξNaproxenoyl = COc1ccc2cc(C(C)C(=O)*)ccc2c1; Isoorotoyl = O=C(c1c[nH]c(=O)[nH]c1=O)*; Benzoyl(4-OMe) = COc1ccc(C(=O)*)cc1; Benzoyl(4-Cl) = O=C(c1ccc(Cl)cc1)*; Phenoxyacetyl = O=C(COc1ccccc1)*; Cysteamide = C(CS[*:3])N[*:1]; X3 = O=C(Cc1c[nH]c2ccccc12)*; X12 = Cc1nc2ccccn2c1C(=O)*; X1 = O=C(/C=C/c1ccccc1)*; Api = NC1(C(=O)O)CCNCC1; Dap = NC[CH](N)C(=O)O; Mpa = O=C(O)CCS

Target: MDM2 (Homo sapiens, UniProt Q00987)
Test: MDM2 binding screen: displacement of fluorescent p53 peptide probe FP53 (fluorescence polarization)
Conditions: for fraction fluorescent probe displaced: 10 µM macrocycle concentration, crude acylated macrocycle (scaffold Mpa-AA1-AA2-AA3 x carboxylic acid), p53-based fluorescent peptide, human MDM2; for fraction fluorescent probe displaced, Screen: initial screen; for fraction fluorescent probe displaced, Screen / fraction fluorescent probe displaced, Replicate: crude macrocycle reactions
Procedure, shortened: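 Single-point screen: one fluorescence anisotropy reading at 25 °C (485 nm excitation, 535 nm emission) per macrocycle. Crude macrocycle reactions, final 10 µM, were scored for displacing the fluorescent p53 peptide from human MDM2.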

MDM2, sequence (Q00987 whole entry): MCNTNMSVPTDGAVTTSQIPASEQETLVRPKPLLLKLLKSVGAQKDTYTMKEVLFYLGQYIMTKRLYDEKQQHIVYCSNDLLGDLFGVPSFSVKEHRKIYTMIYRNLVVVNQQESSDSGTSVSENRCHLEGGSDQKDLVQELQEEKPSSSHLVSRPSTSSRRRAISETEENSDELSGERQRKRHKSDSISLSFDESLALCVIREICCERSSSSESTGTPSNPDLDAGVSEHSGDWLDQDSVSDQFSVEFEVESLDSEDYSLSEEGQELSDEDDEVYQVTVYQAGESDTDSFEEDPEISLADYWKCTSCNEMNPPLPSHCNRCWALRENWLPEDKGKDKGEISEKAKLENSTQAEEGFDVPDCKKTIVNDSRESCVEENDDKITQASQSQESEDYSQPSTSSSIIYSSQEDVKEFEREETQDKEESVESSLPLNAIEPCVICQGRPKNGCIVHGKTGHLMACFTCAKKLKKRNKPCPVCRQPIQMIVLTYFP

Structure (SMILES): O=C(COc1ccccc1)NC[C@@H]1NC(=O)[C@@H]2CCCN2C(=O)CCSSCCNC(=O)[C@H](Cc2ccccc2)NC1=O [X-B1-D3-F + A13] ([Mpa]P[Dap](Phenoxyacetyl)F-Cysteamide; disulfide 1-C)
- fraction fluorescent probe displaced: 0.1199

Structure (SMILES): O=C1CCNC(=O)C(Cc2ccccc2)NC(=O)C2CC(NC(=O)c3ccc(Cl)s3)CN2C(=O)CCSSCCN1 (centres unmarked) [X D5 F B2 Acid 14]
- fraction fluorescent probe displaced, Screen (Acid 14): 0.08
- fraction fluorescent probe displaced, Replicate (Acid 14): 0.0465

Structure (SMILES): O=C1CCSSCCNC(=O)C2CCCN(C2)C(=O)C2CC(NC(=O)c3ccc(Cl)s3)CN2C(=O)C(Cc2ccccc2)N1 (centres unmarked) [X F D5 B4 Acid 14]
- fraction fluorescent probe displaced, Screen (Acid 14): -0.00483
- fraction fluorescent probe displaced, Replicate (Acid 14): 0.0211

Structure (SMILES): O=C1CCSSCCNC(=O)C2CCCN(C2)C(=O)C2(CCN(C(=O)c3ccc(Cl)s3)CC2)NC(=O)C(Cc2c[nH]c3ccccc23)N1 (centres unmarked) [X W D6 B4 Acid 14]
- fraction fluorescent probe displaced, Screen (Acid 14): 0.11
- fraction fluorescent probe displaced, Replicate (Acid 14): 0.38

Structure (SMILES): O=C1CCNC(=O)[C@H](Cc2ccccc2)NC(=O)CCSSCCNC(=O)[C@H](CNC(=O)c2ccc(Cl)s2)N1 [X F B2 D3 Acid 14]
- fraction fluorescent probe displaced, Screen (Acid 14): 0.14
- fraction fluorescent probe displaced, Replicate (Acid 14): 0.12

Structure (SMILES): O=C1CCSSCCNC(=O)[C@H](Cc2ccccc2)NC(=O)[C@@H]2CCCN2C(=O)[C@H](CNC(=O)c2ccc(Cl)cc2)N1 [X D3 B1 F Acid 25] ([Mpa][Dap](Benzoyl(4-Cl))PF-Cysteamide; disulfide 1-C)
- fraction fluorescent probe displaced, Screen (Acid 25): 0.15
- fraction fluorescent probe displaced, Replicate (Acid 25): 0.12

Structure (SMILES): O=C1CCNC(=O)[C@H](Cc2c[nH]c3ccccc23)NC(=O)CCSSCCNC(=O)[C@H](CNC(=O)c2ccc(Cl)s2)N1 [X W B2 D3 Acid 14]
- fraction fluorescent probe displaced, Screen (Acid 14): 0.23
- fraction fluorescent probe displaced, Replicate (Acid 14): 0.35

Structure (SMILES): O=C(/C=C/c1ccccc1)NC[C@@H]1NC(=O)CCSSCCNC(=O)[C@@H]2CCCN2C(=O)[C@H](Cc2ccccc2)NC1=O [X D3 F B1 Acid 91] ([Mpa][Dap](X1)FP-Cysteamide; disulfide 1-C)
- fraction fluorescent probe displaced, Screen (Acid 91): -0.05
- fraction fluorescent probe displaced, Replicate (Acid 91): -0.06

Structure (SMILES): O=C1CCSSCCNC(=O)[C@H]2CCCN(C2)C(=O)C2(CCN(C(=O)c3ccc(Cl)cc3)CC2)NC(=O)[C@H](Cc2ccccc2)N1 [X F D6 B4 Acid 25]
- fraction fluorescent probe displaced, Screen (Acid 25): -0.00813
- fraction fluorescent probe displaced, Replicate (Acid 25): 0.07

Structure (SMILES): O=C1CCSSCCNC(=O)C(Cc2ccccc2)NC(=O)C2(CCN(C(=O)C=Cc3ccccc3)CC2)NC(=O)c2cccc(c2)CN1 (centres unmarked) [X B5 D6 F Acid 91]
- fraction fluorescent probe displaced, Screen (Acid 91): -0.10
- fraction fluorescent probe displaced, Replicate (Acid 91): -0.08

Structure (SMILES): O=C1CCSSCCNC(=O)C2CN(C(=O)c3ccc(Cl)s3)CCN2C(=O)CCNC(=O)C(Cc2ccccc2)N1 (centres unmarked) [X F B2 D7 Acid 14]
- fraction fluorescent probe displaced, Screen (Acid 14): 0.17
- fraction fluorescent probe displaced, Replicate (Acid 14): 0.10

Structure (SMILES): O=C1CCNC(=O)C2CC(NC(=O)c3ccc(Cl)s3)CN2C(=O)CCSSCCNC(=O)C(Cc2ccccc2)N1 (centres unmarked) [X D5 B2 F Acid 14]
- fraction fluorescent probe displaced, Screen (Acid 14): -0.0337
- fraction fluorescent probe displaced, Replicate (Acid 14): 0.07

Structure (SMILES): O=C(NC[C@@H]1NC(=O)[C@H]2CCCN(C2)C(=O)CCSSCCNC(=O)[C@H](Cc2ccccc2)NC1=O)c1ccc(Cl)cc1 [X B4 D3 F Acid 25]
- fraction fluorescent probe displaced, Screen (Acid 25): 0.09
- fraction fluorescent probe displaced, Replicate (Acid 25): 0.12

Structure (SMILES): O=C(/C=C/c1ccccc1)NC[C@@H]1NC(=O)CCSSCCNC(=O)c2cccc(c2)CNC(=O)[C@H](Cc2c[nH]c3ccccc23)NC1=O [X D3 W B5 Acid 91]
- fraction fluorescent probe displaced, Screen (Acid 91): 0.24
- fraction fluorescent probe displaced, Replicate (Acid 91): 0.32

Structure (SMILES): O=C1CCNC(=O)C2(CCN(C(=O)c3ccc(Cl)s3)CC2)NC(=O)CCSSCCNC(=O)[C@H](Cc2ccccc2)N1 [X D6 B2 F Acid 14]
- fraction fluorescent probe displaced, Screen (Acid 14): 0.08
- fraction fluorescent probe displaced, Replicate (Acid 14): 0.0465

Structure (SMILES): O=C1CCSSCCNC(=O)C2CCCN(C2)C(=O)C2CC(NC(=O)c3ccc(Cl)cc3)CN2C(=O)C(Cc2c[nH]c3ccccc23)N1 (centres unmarked) [X W D5 B4 Acid 25]
- fraction fluorescent probe displaced, Screen (Acid 25): 0.22
- fraction fluorescent probe displaced, Replicate (Acid 25): 0.15

Structure (SMILES): O=C(/C=C/c1ccccc1)N[C@H]1C[C@H]2C(=O)N[C@@H](Cc3c[nH]c4ccccc34)C(=O)NCCSSCCC(=O)N3CCC[C@H]3C(=O)N2C1 [X B1 D5 W Acid 91] ([Mpa]P[Pro(cis-4-NH-(E)-Cinnamoyl)]W-Cysteamide; disulfide 1-C)
- fraction fluorescent probe displaced, Screen (Acid 91): 0.03
- fraction fluorescent probe displaced, Replicate (Acid 91): 0.04

Structure (SMILES): Cc1nc2ccccn2c1C(=O)NC[C@@H]1NC(=O)[C@@H]2CCCN2C(=O)CCSSCCNC(=O)[C@H](Cc2c[nH]c3ccccc23)NC1=O [X-B1-D3-W + A61] ([Mpa]P[Dap](X12)W-Cysteamide; disulfide 1-C)
- fraction fluorescent probe displaced: 0.006636

Structure (SMILES): O=C1NC(Cc2ccccc2)C(=O)NCCSSCCC(=O)N2CC(NC(=O)c3ccc(Cl)s3)CC2C(=O)NCc2cccc1c2 (centres unmarked) [X D5 B5 F Acid 14]
- fraction fluorescent probe displaced, Screen (Acid 14): -0.0337
- fraction fluorescent probe displaced, Replicate (Acid 14): 0.0465

Structure (SMILES): COc1ccc2cc(C(C)C(=O)NCC3NC(=O)C4CCCN4C(=O)CCSSCCNC(=O)C(Cc4c[nH]c5ccccc45)NC3=O)ccc2c1 (centres unmarked) [X-B1-D3-W + A97] ([Mpa]P[Dap](ξNaproxenoyl)W-Cysteamide; disulfide 1-C; configuration not given here)
- fraction fluorescent probe displaced: 0.005277

Structure (SMILES): O=C(N[C@H]1C[C@H]2C(=O)N[C@@H](Cc3ccccc3)C(=O)NCCSSCCC(=O)N3CCC[C@H]3C(=O)N2C1)c1ccc(Cl)cc1 [X B1 D5 F Acid 25] ([Mpa]P[Pro(cis-4-NHBenzoyl(4-Cl))]F-Cysteamide; disulfide 1-C)
- fraction fluorescent probe displaced, Screen (Acid 25): 0.16
- fraction fluorescent probe displaced, Replicate (Acid 25): 0.15

Structure (SMILES): COc1ccc(C(=O)NC[C@@H]2NC(=O)[C@@H]3CCCN3C(=O)CCSSCCNC(=O)[C@H](Cc3ccccc3)NC2=O)cc1 [X-B1-D3-F + A71] ([Mpa]P[Dap](Benzoyl(4-OMe))F-Cysteamide; disulfide 1-C)
- fraction fluorescent probe displaced: -0.03153

Structure (SMILES): O=C1CCSSCCNC(=O)C2(CCN(C(=O)C=Cc3ccccc3)CC2)NC(=O)CCNC(=O)C(Cc2ccccc2)N1 (centres unmarked) [X F B2 D6 Acid 91]
- fraction fluorescent probe displaced, Screen (Acid 91): 0.0563
- fraction fluorescent probe displaced, Replicate (Acid 91): -0.00827

Structure (SMILES): O=C1CCNC(=O)C2CN(C(=O)c3ccc(Cl)cc3)CCN2C(=O)C(Cc2c[nH]c3ccccc23)NC(=O)CCSSCCN1 (centres unmarked) [X W D7 B2 Acid 25]
- fraction fluorescent probe displaced, Screen (Acid 25): 0.19
- fraction fluorescent probe displaced, Replicate (Acid 25): 0.07

Structure (SMILES): O=C1CCSSCCNC(=O)[C@@H]2CCCN2C(=O)C2(CCN(C(=O)/C=C/c3ccccc3)CC2)NC(=O)[C@H](Cc2c[nH]c3ccccc23)N1 [X W D6 B1 Acid 91] ([Mpa]W[Api](X1)P-Cysteamide; disulfide 1-C)
- fraction fluorescent probe displaced, Screen (Acid 91): 0.14
- fraction fluorescent probe displaced, Replicate (Acid 91): 0.0168

Structure (SMILES): O=C1CCNC(=O)C(Cc2c[nH]c3ccccc23)NC(=O)C2CN(C(=O)c3ccc(Cl)cc3)CCN2C(=O)CCSSCCN1 (centres unmarked) [X D7 W B2 Acid 25]
- fraction fluorescent probe displaced, Screen (Acid 25): 0.22
- fraction fluorescent probe displaced, Replicate (Acid 25): 0.17

Structure (SMILES): O=C1CCSSCCNC(=O)[C@H]2CCCN(C2)C(=O)[C@H](Cc2ccccc2)NC(=O)[C@H](CNC(=O)c2ccc(Cl)s2)N1 [X D3 F B4 Acid 14]
- fraction fluorescent probe displaced, Screen (Acid 14): 0.053
- fraction fluorescent probe displaced, Replicate (Acid 14): -0.03

Structure (SMILES): O=C(NC[C@@H]1NC(=O)[C@@H]2CCCN2C(=O)CCSSCCNC(=O)[C@H](Cc2c[nH]c3ccccc23)NC1=O)c1c[nH]c(=O)[nH]c1=O [X-B1-D3-W + A11] ([Mpa]P[Dap](Isoorotoyl)W-Cysteamide; disulfide 1-C)
- fraction fluorescent probe displaced: 0.1

Structure (SMILES): O=C1CCSSCCNC(=O)C2CC(NC(=O)c3ccc(Cl)s3)CN2C(=O)C(Cc2ccccc2)NC(=O)CCN1 (centres unmarked) [X B2 F D5 Acid 14]
- fraction fluorescent probe displaced, Screen (Acid 14): 0.14
- fraction fluorescent probe displaced, Replicate (Acid 14): 0.07

Structure (SMILES): O=C1CCSSCCNC(=O)[C@@H]2CCCN2C(=O)C2(CCN(C(=O)c3ccc(Cl)cc3)CC2)NC(=O)[C@H](Cc2ccccc2)N1 [X F D6 B1 Acid 25] ([Mpa]F[Api](Benzoyl(4-Cl))P-Cysteamide; disulfide 1-C)
- fraction fluorescent probe displaced, Screen (Acid 25): 0.0244
- fraction fluorescent probe displaced, Replicate (Acid 25): 0.17

Structure (SMILES): O=C1CCSSCCNC(=O)C2CC(NC(=O)c3ccc(Cl)cc3)CN2C(=O)C(Cc2c[nH]c3ccccc23)NC(=O)CCN1 (centres unmarked) [X B2 W D5 Acid 25]
- fraction fluorescent probe displaced, Screen (Acid 25): 0.19
- fraction fluorescent probe displaced, Replicate (Acid 25): 0.22

Structure (SMILES): O=C(C=Cc1ccccc1)NC1CC2C(=O)NCCC(=O)NCCSSCCC(=O)NC(Cc3ccccc3)C(=O)N2C1 (centres unmarked) [X F D5 B2 Acid 91]
- fraction fluorescent probe displaced, Screen (Acid 91): 0.08
- fraction fluorescent probe displaced, Replicate (Acid 91): 0.0168

Structure (SMILES): O=C(Cc1c[nH]c2ccccc12)NC[C@@H]1NC(=O)[C@@H]2CCCN2C(=O)CCSSCCNC(=O)[C@H](Cc2ccccc2)NC1=O [X-B1-D3-F + A12] ([Mpa]P[Dap](X3)F-Cysteamide; disulfide 1-C)
- fraction fluorescent probe displaced: 0.03497

Structure (SMILES): O=C1NC(Cc2c[nH]c3ccccc23)C(=O)NCCSSCCC(=O)N2CCN(C(=O)C=Cc3ccccc3)CC2C(=O)N2CCCC1C2 (centres unmarked) [X D7 B4 W Acid 91]
- fraction fluorescent probe displaced, Screen (Acid 91): 0.08
- fraction fluorescent probe displaced, Replicate (Acid 91): 0.07

Structure (SMILES): O=C1CCSSCCNC(=O)C(Cc2c[nH]c3ccccc23)NC(=O)C2CN(C(=O)c3ccc(Cl)cc3)CCN2C(=O)c2cccc(c2)CN1 (centres unmarked) [X B5 D7 W Acid 25]
- fraction fluorescent probe displaced, Screen (Acid 25): 0.09
- fraction fluorescent probe displaced, Replicate (Acid 25): 0.15

Structure (SMILES): O=C(N[C@H]1C[C@H]2C(=O)NCc3cccc(c3)C(=O)N[C@@H](Cc3ccccc3)C(=O)NCCSSCCC(=O)N2C1)c1ccc(Cl)cc1 [X D5 B5 F Acid 25]
- fraction fluorescent probe displaced, Screen (Acid 25): -0.00813
- fraction fluorescent probe displaced, Replicate (Acid 25): 0.15

Structure (SMILES): O=C1CCSSCCNC(=O)[C@H](Cc2c[nH]c3ccccc23)NC(=O)c2cccc(c2)CNC(=O)[C@H](CNC(=O)c2ccc(Cl)cc2)N1 [X D3 B5 W Acid 25]
- fraction fluorescent probe displaced, Screen (Acid 25): 0.25
- fraction fluorescent probe displaced, Replicate (Acid 25): 0.10
